Counter-ions that a name gives are not always drawn.

In US7790727B2, “Benzenesulfonanilide compounds suitable for treating disorders that respond to modulation of the serotonin 5-HT6 receptor” (Abbott GmbH & Co. KG, priority 2007, dated 2010) one finds Ki data, which are given here for 26 compounds.

The target in one experiment is T1, h-5-HT6 receptor (Homo sapiens, UniProt P50406).
T1 construct: expressed in transfected cells
T1 sequence (P50406 whole entry): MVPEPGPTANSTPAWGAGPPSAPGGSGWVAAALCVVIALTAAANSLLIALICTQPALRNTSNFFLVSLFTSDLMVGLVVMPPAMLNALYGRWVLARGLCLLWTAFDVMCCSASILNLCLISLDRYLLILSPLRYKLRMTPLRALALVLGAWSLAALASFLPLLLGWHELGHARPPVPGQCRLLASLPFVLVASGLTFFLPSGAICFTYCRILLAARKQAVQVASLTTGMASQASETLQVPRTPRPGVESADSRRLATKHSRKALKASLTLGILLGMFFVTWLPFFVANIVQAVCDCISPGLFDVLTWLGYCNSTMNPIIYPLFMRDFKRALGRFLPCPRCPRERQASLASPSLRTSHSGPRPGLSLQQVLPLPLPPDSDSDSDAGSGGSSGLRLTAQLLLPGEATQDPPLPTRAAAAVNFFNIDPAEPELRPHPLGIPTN
Description: 5-HT6 receptor binding assay (displacement of [3H]-LSD).
Conditions: not given
The protocol:
Displacement of radioligands binding to the following cloned human receptors
1. Preparation of Membranes by Ultrasonic Treatment and Differential Centrifugation
Cells from stable clonal cell lines expressing the corresponding receptor (5-HT6, α1-adrenergic, dopamine D2 or histamine H1 receptors) were washed with PBS (w/o Ca^++, Mg^++) and harvested in PBS with 0.02% EDTA. The cells were collected by centrifugation at 500 g for 10 min. at 4° C., washed with PBS and centrifuged (500 g, 10 min. 4° C.). The pellets were stored at −80° C. until use. F or membrane preparation, the thawed cell pellet was resuspended in ice-cold sucrose buffer (0.25 M sucrose, 10 mM Hepes (pH 7.4), 1 mM Phenylmethylsulfonyl fluoride (PMSF) in DMSO, 5 μg/ml Pepstatin-A, 3 mM EDTA, 0.025% Bacitracin) and homogenized with a Branson Sonifier W-250 (Settings: Timer 4; Output Control 3; Duty Cycle constant; 2 to 3 cycles). Cell disruption was checked with the aid of a microscope. Remaining unbroken cells were pelleted at 1.000 g for 10 min. at 4° C. The sucrose buffer supernatant was then centrifuged at 60.000 g for 1 h at 4° C. (Beckman Ultrazentrifuge XL 80). The pellet was resuspended in 30 ml ice-cold Tris buffer (20 mM TRIS (pH 7.4), 5 μg/ml Pepstatin A, 0.1 mM PMSF, 3 mM EDTA) by pipetting through a 10 ml serological pipet and centrifuged for 1 h at 4° C. at 60.000 g. A final resuspension was performed in a small volume of ice-cold Tris buffer (see above) by pressing through a serological pipet followed by ultrasonic treatment with a Branson Sonifier W-250 (Settings: Timer 1; Output Control 3; Duty Cycle constant; 1 cycle). Protein concentration was determined (BCA-Kit; Pierce) and aliquots stored at −80° C. or in liquid nitrogen for long-term storage.
2. Receptor Binding Experiments
All receptor binding experiments were carried out in the corresponding assay buffer in a total volume of 200 μl in the presence of various concentrations of test compound (10^−5 M to 10^−9 M, tenfold serial dilution, duplicate determinations). The assays were terminated by filtration on polyethylenimine (PEI 0.1% or 0.3%) presoaked Packard Unifilter Plates (GF/C or GF/B) with a Tomtec Machill U 96 well-plate harvester. After the plates had been dried for 2 h at 55° C. in a drying chamber scin tillation cocktail (BetaPlate Scint; PerkinElmer) was added. Radioactivity was measured in a Microbeta Trilux two hours after the addition of the scintillation mixture. Data derived from liquid scintillation counting were analysed by iterative non-linear regression analysis with the use of the Statistical Analysis System (SAS): a program similar to “LIGAND” as described by Munson and Rodbard (Analytical Biochemistry 107, 220-239 (1980).
a) 5-HT6 Receptor Binding Assay
HEK293 cells stably expressing the h-5-HT6 receptor (NCBI Reference Sequence XM 001435) were cultured in RPMI1640 medium supplemented with 25 mM HEPES, 10% fetal calf serum and 1-2 mM glutamine. The membrane preparation was performed as described in section 1. […] Non-specific binding was defined with 1 μM methiothepin. The binding reaction was carried out for 3.5 h at room temperature. During the incubation, the plates were shaken on a plate shaker at 100 rpm and terminated by filtration on Packard Unifilter GF/C (0.1% PEI) plates, followed by 2 wash cycles with ice-cold 50 mM Tris-HCl, 5 mM CaCl2.
Data derived from liquid scintillation counting were analyzed by iterative non-linear regression analysis with the use of the Statistical Analysis System (SAS): a program similar to “LIGAND” as described by Munson and Rodbard (Anal. Biochem. 1980, 107, 220-239). Fitting was performed according to formulae described by Feldman (Anal. Biochem. 1972, 48, 317-338). IC50, nH and Ki values were expressed as geometrical mean.
Background: Loss of bound radioactivity is the signal in a displacement assay; it reports binding, not function.
In general, Ki refers to the equilibrium dissociation constant of an inhibitor or competing ligand from its target. In turn, `O=S(=O)(Nc1ccc(F)c(N2CCNCC2)c1)c1cccc(OC(F)F)c1` [Example 26, 3-Difluoromethoxy-N-(4-fluoro-3-piperazin-1-yl-phenyl)-benzenesulfonamide Hydrochloride] yielded an inhibitory constant (Ki) of less than 50 nM.

Still in this experiment, the particulars now being: membranes of HEK293 cells expressing h-5-HT6 receptor, 1 nM [3H]-LSD; read-out: Ki(5HT6).
Regarding `COc1ccc(NS(=O)(=O)c2cccc(OC(F)F)c2)cc1N1CCNCC1` [Example 1, 3-Difluoromethoxy-N-(4-methoxy-3-piperazin-1-yl-phenyl)-benzenesulfonamide Hydrochloride], the Ki was less than 10 nM.

On to `COc1ccc(N(C)S(=O)(=O)c2cccc(OC(F)F)c2)cc1N1CCNCC1` [Example 2, 3-Difluoromethoxy-N-(4-methoxy-3-piperazin-1-yl-phenyl)-N-methyl-benzene-sulfonamide Hydrochloride], for which the inhibition constant Ki was less than 20 nM.

Turning to `COc1ccc(NS(=O)(=O)c2ccc(OC(F)F)cc2)cc1N1CCN(C)CC1` [Example 3, 4-Difluoromethoxy-N-[4-methoxy-3-(4-methyl-piperazin-1-yl)-phenyl]-benzenesulfonamide], the Ki was less than 20 nM.

With `COc1ccc(NS(=O)(=O)c2cccc3c2OC(F)(F)O3)cc1N1CCNCC1` [Example 4, 2,2-Difluoro-benzo[1,3]dioxole-4-sulfonic Acid (4-methoxy-3-piperazin-1-yl-phenyl)-amide Hydrochloride], the Ki was less than 10 nM.

On to `O=S(=O)(Nc1ccc(OC(F)(F)F)c(N2CCNCC2)c1)c1cccc(OC(F)F)c1` [Example 6, 3-Difluoromethoxy-N-(3-piperazin-1-yl-4-trifluoromethoxy-phenyl)-benzenesulfonamide], for which the Ki is less than 20 nM.

As to `O=S(=O)(Nc1ccc(OC(F)F)c(N2CCNCC2)c1)c1ccccc1OC(F)F` [Example 7, 2-Difluoromethoxy-N-(3-piperazin-1-yl-4-difluoromethoxy-phenyl)-benzenesulfonamide Trifluoroacetate], the Ki is less than 50 nM.

With `COc1ccc(NS(=O)(=O)c2cc(OC(F)F)ccc2OC)cc1N1CCNCC1` [Example 8, 5-Difluoromethoxy-2-methoxy-N-(4-methoxy-3-piperazin-1-yl-phenyl)-benzene-sulfonamide Hydrochloride], the Ki was less than 10 nM.

On to `COc1c(F)cc(NS(=O)(=O)c2cccc(OC(F)F)c2)cc1N1CCNCC1` [Example 9, 3-Difluoromethoxy-N-(3-fluoro-4-methoxy-5-piperazin-1-yl-phenyl)-benzenesulfonamide Hydrochloride], for which the Ki is less than 50 nM.

For `COc1c(F)cc(NS(=O)(=O)c2cccc3c2OC(F)(F)O3)cc1N1CCNCC1` [Example 10, 2,2-Difluoro-benzo[1,3]dioxole-4-sulfonic acid (3-fluoro-4-methoxy-5-piperazin-1-yl-phenyl)-amide Hydrochloride], the Ki was less than 10 nM.

Take `O=S(=O)(Nc1ccc(OCCF)c(N2CCNCC2)c1)c1cccc(OC(F)F)c1` [Example 11, 3-Difluoromethoxy-N-[4-(2-fluoroethoxy)-3-piperazin-1-yl-phenyl]-benzenesulfonamide Hydrochloride]: the inhibitory constant (Ki) is less than 10 nM.

Take `O=S(=O)(Nc1ccc(OCCF)c(N2CCNCC2)c1)c1cccc2c1OC(F)(F)O2` [Example 12, 2,2-Difluoro-benzo[1,3]dioxole-4-sulfonic acid (4-(2-fluoroethoxy)-5-piperazin-1-yl-phenyl)-amide Hydrochloride]: the Ki was less than 50 nM.

With `COc1ccc(S(=O)(=O)Nc2ccc(OC)c(N3CCNCC3)c2)cc1OC(F)F` [Example 13, 3-Difluoromethoxy-4-methoxy-N-(4-methoxy-3-piperazin-1-yl-phenyl)-benzenesulfonamide Hydrochloride], the inhibition constant Ki was less than 10 nM.

With `COc1ccc(NS(=O)(=O)c2ccccc2OC(F)F)cc1N1CCNCC1` [Example 14, 2-Difluoromethoxy-N-(4-methoxy-3-piperazin-1-yl-phenyl)-benzenesulfonamide Trifluoroacetate], the Ki is less than 10 nM.

Consider `COc1ccc(NS(=O)(=O)c2ccc(OC(F)F)cc2)cc1N1CCNCC1` [Example 15, 4-Difluoromethoxy-N-(4-methoxy-3-piperazin-1-yl-phenyl)-benzenesulfonamide Hydrochloride], for which the inhibition constant Ki was less than 50 nM.

`CCN(c1ccc(OC)c(N2CCN(C)CC2)c1)S(=O)(=O)c1cccc(OC(F)F)c1` [Example 16, 3-Difluoromethoxy-N-ethyl-N-[4-methoxy-3-(4-methyl-piperazin-1-yl)-phenyl]-benzenesulfonamide Hydrochloride]: the Ki is less than 10 nM.

Turning to `COc1ccc(N(CCCF)S(=O)(=O)c2cccc(OC(F)F)c2)cc1N1CCNCC1` [Example 17, 3-Difluoromethoxy-N-(3-fluoropropyl)-N-(4-methoxy-3-piperazin-1-yl-phenyl)-benzenesulfonamide Hydrochloride], the Ki was less than 50 nM.

Regarding `CCCN(c1ccc(OC)c(N2CCNCC2)c1)S(=O)(=O)c1cccc(OC(F)F)c1` [Example 18, 3-Difluoromethoxy-N-(4-methoxy-3-piperazin-1-yl-phenyl)-N-propyl-benzene-sulfonamide Hydrochloride], the Ki is less than 50 nM.

On to `COc1cc(Cl)c(NS(=O)(=O)c2cccc(OC(F)F)c2)cc1N1CCNCC1` [Example 19, N-(2-Chloro-4-methoxy-5-piperazin-1-yl-phenyl)-3-difluoromethoxy-benzene-sulfonamide Trifluoroacetate], for which the inhibition constant Ki is less than 50 nM.

Take `CN1CCN(c2cc(NS(=O)(=O)c3cccc(OC(F)F)c3)ccc2OC(F)(F)F)CC1` [Example 20, 3-Difluoromethoxy-N-[3-(4-methyl-piperazin-1-yl)-4-trifluoromethoxy-phenyl]-benzenesulfonamide Hydrochloride]: the inhibition constant Ki is less than 10 nM.

On to `COc1ccc(N(C)S(=O)(=O)c2cccc3c2OC(F)(F)O3)cc1N1CCN(C)CC1` [Example 21, 2,2-Difluoro-benzo[1,3]dioxole-4-sulfonic acid [4-methoxy-3-(4-methyl-piperazin-1-yl)-phenyl]-methyl-amide Hydrochloride], for which the Ki was less than 50 nM.

Take `CCN(c1ccc(OC)c(N2CCNCC2)c1)S(=O)(=O)c1cccc2c1OC(F)(F)O2` [Example 22, 2,2-Difluoro-benzo[1,3]dioxole-4-sulfonic acid ethyl-(4-methoxy-3-piperazin-1-yl-phenyl)-amide Hydrochloride]: the Ki was less than 50 nM.

With `COc1ccc(N(C)S(=O)(=O)c2cccc3c2OC(F)(F)O3)cc1N1CCNCC1` [Example 23, 2,2-Difluoro-benzo[1,3]dioxole-4-sulfonic acid methyl-(4-methoxy-3-piperazin-1-yl-phenyl)-amide Hydrochloride], the Ki is less than 50 nM.

With `COc1ccc(N(C)S(=O)(=O)c2cccc(OC(F)F)c2)cc1N1CCN(C)CC1` [Example 24, 3-Difluoromethoxy-N-[4-methoxy-3-(4-methyl-piperazin-1-yl)-phenyl]-N-methyl-benzenesulfonamide Hydrochloride], the Ki is less than 10 nM.

With `COc1ccc(NS(=O)(=O)c2cccc(OC(F)F)c2)cc1N1CCN(C)CC1` [Example 25, 3-Difluoromethoxy-N-[4-methoxy-3-(4-methyl-piperazin-1-yl)-phenyl]-benzenesulfonamide], the Ki was less than 10 nM.

Regarding `O=S(=O)(Nc1ccc(F)c(N2CCNCC2)c1)c1cccc2c1OC(F)(F)O2` [Example 27, 2,2-Difluoro-benzo[1,3]dioxole-4-sulfonic acid (4-fluoro-3-piperazin-1-yl-phenyl)-amide Hydrochloride], the Ki is less than 50 nM.
